Reference: US20250041624A1, “METHOD FOR ENHANCING ACTIVITY OF PHOTOSENSITIZER BY MAGNETIC FIELD” (PEKING UNIVERSITY, priority 2021, published 2025)

Experiments:
[1] = tested on: HeLa xenograft tumor tissue; test: IHC staining (Bax, Bcl-2, cleaved Caspase-3) of xenograft tumor tissue sections for apoptosis; format: in vivo, BALB/c nude mice; settings: RB added, day 14, FIG. 19
Description: Test (two): After sacrificing the mice on day 14, tumor tissue and major organs (heart, liver, spleen, lungs and kidney) are collected and detected histologically. Tumor tissue and major organs are fixed by 10% neutral formalin solution. Hematoxylin-Eosin (H&E) staining is used to analyze toxicity of light and magnetic field effects on tumor and normal organs. Terminal deoxynucleotidyl transferase-mediated dUTP nick end labeling (TUNEL) staining is used to detect apoptosis in tumor tissue, and expression of cleaved Caspase-3, Bax and Bcl-2 in tumor tissue is simultaneously detected.

[2] = Reaction rate of fluorescent probe SOSG with 1O2 generated by photosensitizer under light and magnetic field; format: physicochemical; settings: for first derivative of the I525 nm−t curve (normalized): RB and SOSG 10 μmol/L in water, 561 nm LED 5 mW·cm−2, time 0
Description: (1) The photosensitizer Rose Bengal (RB) (the purity >98%, available from Saen Chemical Technologies (Shanghai) Ltd. Co., branded as Energy Chemical) and singlet oxygen fluorescent probe (SOSG) are dissolved in water (SOSG available from ThermoFisher Scientific (China) Co., Ltd.). In the resulting solution, the photosensitizer and SOSG are both at a concentration of 10 μmol/L. In a magnetic field with certain strength, the solutions are exposed to a 561 nm LED lamp (light emitting diode) at a power of 5 mW·cm^−2 and tested for fluorescence spectra at 0, 15, 30, 45, 60, 90, 120 and 180 seconds of light exposure, respectively, resulting in emission intensity ([…]) versus time (t) curves. The above fluorescence spectroscopy test is performed at a magnetic field strength of 0, 10, 35, 85, 180, 300 mT, respectively (external magnetic field provided by a neodymium iron boron permanent magnet).
(2) The photosensitizer chlorin e6 (Ce6, Chlorin e6) (available from Saen Chemical Technologies (Shanghai) Ltd. Co., branded as Energy Chemical) and singlet oxygen fluorescent probe (SOSG) are dissolved in water, both with a concentration of 10 μmol/L in the resulting solutions. In a magnetic field with certain strength, the solutions are exposed to a 640 nm LED lamp (light emitting diode) at a power of 5 mW·cm^−2 and tested for fluorescence spectra at 0, 15, 30, 45, 60, 90, 120 and 180 seconds of light exposure, respectively, resulting in emission intensity ([…]) versus time (t) curves. The above fluorescence spectra are tested at a magnetic field strength of 0, 10, 30, 70, 150, 250 mT, respectively.
The external magnetic field is supplied by Neodymium Iron Boron Permanent Magnet. Fluorescence spectra are tested using Edinburg FLS980 Steady State Transient Fluorescence Spectrometer with a detector of PMT R928 and a light source of 450 W ozone-free xenon lamp with excitation wavelength of λex=488 nm.
Under irradiation conditions, photosensitizer is excited to produce singlet oxygen ^1O2, and fluorescent probe SOSG reacts with ^1O2 to give endoperoxide with green fluorescence emission characteristic, with emission wavelength of 525 nm under excitation wavelength conditions of 488 nm. The reaction has a reaction rate of r.
In the present invention, through application of light and a magnetic field, the magnetic field effects (MFEs) is quantified by mfeR, the change rate of the reaction rate r, mfeR=(rB−r0)/r0×100%, where r0 is the reaction rate at a magnetic field strength of 0 mT and rB is the reaction rate at a magnetic field strength of B mT. Where the reaction rate (r) is proportional to the slope of the tangent of a curve (first derivative of the curve) of the emission intensity (I525 nm) versus time (t). Under magnetic field strengths of 0, 10, 35, 85, 180, 300 mT and from the time of starting to illuminate and place in magnetic field (the time recorded as 0), the first derivative of the I525 nm−t curve is 1, 1.05, 1.09, 0.99, 1.12, 1.14 (normalized).

[3] = tested on: HeLa cells; test: Annexin V-FITC/PI apoptosis flow cytometry of HeLa cells; format: cell-based; settings: RB 30 μmol/L; for percentage of apoptotic cells: light 561 nm 5 mW·cm−2 10 min
Description: (2) HeLa cells (2×10^4/well) are seeded in 6-well plates and cultured for 24 hours, added with RB solution (final concentration 30 μmol/L) or PBS buffer (final concentration 0.01 mol/L), and after treating 24 hours, cells are washed 3 times with PBS buffer.
The cells are placed under a magnetic field at 0, 250 or 800 mT, simultaneously with light (561 nm, 5 mW·cm^−2) or in the dark, and treated 10 minutes. After 24 hours incubation in the dark, cells are stained with Annexin V-FITC/PI Apoptosis Kit (available from Biyotime Biotechnology Co. Ltd), are detected by flow cytometry (BD FACSVerse, Becton Dickinson) and are statistically analysized three times every group, and results are shown in FIG. 13, in which Quadrant Q4 is for the number of healthy cells, Q1 is for the number of early apoptotic cells, Q2 is for the number of late apoptotic cells and Q3 is for the number of necrotic cells.

In the case of `O=C1OC2(c3cc(I)c(O)c(I)c3Oc3c2cc(I)c(O)c3I)c2c(Cl)c(Cl)c(Cl)c(Cl)c21` [RB, Rose Bengal], the “apoptosis in tumor sections (IHC)” value ([1]; magnetic field of 250 mT) is reported as “apoptosis is more pronounced”, the “apoptosis in tumor sections (IHC)” value ([1]; magnetic field of 800 mT) is reported as “apoptosis is not significant” and the “first derivative of the I525 nm−t curve (normalized)” value (“first derivative … (normalized)” below) ([2]; MF 0 mT) is reported as 1. The “first derivative … (normalized)” value ([2]; MF 10 mT) was 1.05, the “first derivative … (normalized)” value ([2]; MF 35 mT) was 1.09 and the “first derivative … (normalized)” value ([2]; MF 85 mT) was 0.99. For the same compound, the “first derivative … (normalized)” value ([2]; MF 180 mT) was 1.12, the “first derivative … (normalized)” value ([2]; MF 300 mT) was 1.14 and the “mfer (change rate of reaction rate r of SOSG with 1O2)” value ([2]; peak, MF 250 mT vs 0 mT, FIG. 1) was 25%. For the same compound, the “percentage of apoptotic cells” value ([3]; 250 mT) was 75.9%, the “percentage of apoptotic cells” value ([3]; 800 mT) was 32.9% and the “percentage of apoptotic cells” value ([3]; no magnetic field) was 63.8%. For the same compound, the “increase of percentage of apoptotic cells vs no magnetic field” value ([3]; light, 250 mT) was 19%.
